Measured values reported in patent publication US20110269811A1, “INHIBITORS OF SEMICARBAZIDE-SENSITIVE AMINE OXIDASE (SSAO) AND VAP-1 MEDIATED ADHESION USEFUL FOR TREATMENT AND PREVENTION OF DISEASES” (priority 2006, published 2011).

Tested on: not given
Experiment: not given
Settings: not given
Compound CSc1ccc(C/C(=C/F)CN)cc1.Cl [Compound I-9-Z, (Z)-3-Fluoro-2-(4-methylthiobenzyl)allylamine hydrochloride] has a melting point of 144 to 146 °C. With Cc1cccc(C/C=C(/F)CN)c1.Cl [II-6-E, (E)-2-Fluoro-4-(3-methylphenyl)-2-butenylamine hydrochloride] the melting point was 195 to 196 °C. In the case of CCOc1ccc(C/C(=C\F)CN)cc1.Cl [Compound I-2-E, (E)-3-Fluoro-2-(4-ethoxybenzyl)-allylamine hydrochloride], the melting point is reported as 167 to 168 °C. In the case of Cl.NC/C(F)=C\Cc1cccc(OC(F)(F)F)c1 [II-10-E, (E)-2-Fluoro-4-(3-trifluoromethoxyphenyl)-2-butenylamine hydrochloride], the melting point is reported as 174 to 175 °C. In the case of CC(C)c1ccc(C/C(=C/F)CN)cc1.Cl [Compound I-14-Z, (Z)-3-Fluoro-2-(4-isopropylbenzyl)allylamine hydrochloride], the melting point is reported as 175 to 176 °C. In the case of Cl.NC/C(=C\F)Cc1cccc(F)c1 [Compound I-19-Z, (Z)-3-Fluoro-2-(3-fluorobenzyl)allylamine hydrochloride], the melting point is reported as 120.5 to 121.5 °C. For Cl.NC/C(=C\F)Cc1ccc(Cl)cc1 [Compound I-3-Z, (Z)-2-(4-Chlorobenzyl)-3-fluoro-allylamine hydrochloride], the melting point was 145 to 146 °C. Cl.NC/C(F)=C\Cc1ccc(F)cc1 [II-5-E, (E)-2-Fluoro-4-(4-fluorophenyl)-2-butenylamine hydrochloride] showed a melting point of 213 to 214 °C. Cl.NC/C(F)=C\Cc1cccc(SC(F)(F)F)c1 [II-15-E, (E)-2-Fluoro-4-(3-trifluoromethylthiophenyl)-2-butenylamine hydrochloride] showed a melting point of 188 to 189 °C. For CC(C)Oc1ccc(C/C(=C/F)CN)cc1.Cl [Compound I-8-Z, (Z)-3-Fluoro-2-(4-isopropoxybenzyl)allylamine hydrochloride], the melting point was 147 to 148 °C.

Target: T1, Recombinant human MAO-A (Homo sapiens, UniProt P21397)
T1 construct: purchased BD Biosciences (MA, USA)
T1 sequence (P21397 1-527): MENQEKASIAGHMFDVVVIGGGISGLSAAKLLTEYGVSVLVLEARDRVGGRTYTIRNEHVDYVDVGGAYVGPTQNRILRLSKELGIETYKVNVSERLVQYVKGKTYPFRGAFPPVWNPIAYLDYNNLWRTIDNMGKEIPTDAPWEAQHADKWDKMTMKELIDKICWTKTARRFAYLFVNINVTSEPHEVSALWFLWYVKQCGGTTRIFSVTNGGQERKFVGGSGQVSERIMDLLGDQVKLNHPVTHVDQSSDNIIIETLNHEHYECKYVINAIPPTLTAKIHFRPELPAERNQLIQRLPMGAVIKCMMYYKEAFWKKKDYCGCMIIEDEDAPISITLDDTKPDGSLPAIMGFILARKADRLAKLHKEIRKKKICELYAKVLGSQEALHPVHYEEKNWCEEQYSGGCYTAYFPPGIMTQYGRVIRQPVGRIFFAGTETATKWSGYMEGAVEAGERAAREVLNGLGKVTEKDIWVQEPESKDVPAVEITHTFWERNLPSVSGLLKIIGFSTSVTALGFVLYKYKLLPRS
Experiment: MAO-A activity, colorimetric method, tyramine substrate
Format: biochemical
Settings: ratio of IC50 for MAO-A to IC50 for SSAO
Protocol: The specificities of the different SSAO inhibitors was tested by determining their abilities to inhibit MAO-A and MAO-B activities in vitro. Recombinant human MAO-A and human MAO-B enzymes were obtained from BD Biosciences (MA, USA). MAO activity was measured using the colorimetric method essentially as described (Holt, A. et al. (1997) Anal. Biochem. 244: 384). A pre-determined amount of inhibitor diluted in 0.2M potassium phosphate buffer, pH 7.6, was added to each well, if required. The amount of inhibitor varied in each assay but was generally at a final concentration of between 1 nM and 1 mM. Controls lacked inhibitor. The following agents were then added to a final reaction volume of 200 μL in 0.2M potassium phosphate buffer, pH 7.6: 0.04 mg/ml of MAO-A or 0.07 mg/ml MAO-B enzyme, 15 μL of 10 mM tyramine substrate (for MAO-A), or 15 μL 100 mM benzylamine substrate (for MAO-B), and 50 μL of freshly made chromogenic solution. The chromogenic solution contained 750 μM vanillic acid (Sigma#V-2250), 400 μM 4-aminoantipyrine (Sigma #A-4328) and 12 U/mL horseradish peroxidase (Sigma #P-8250) in order to cause a change of 0.5 OD A490 nm/h. This was within the linear response range for the assay. The plates were incubated for 60 min at 37° C. The increase in absorbance, reflecting MAO activity, was measured at 490 nm using microplate spectrophotometer (Power Wave 40, Bio-Tek Inst.). Inhibition was presented as percent inhibition compared to control after correcting for background absorbance and IC50 values calculated using GraphPad Prism software. Clorgyline and pargyline (inhibitors of MAO-A and -B, respectively) at 1 μM, were added to some wells as positive controls for MAO inhibition. […] The compounds described in the present invention are therefore expected to have therapeutic utility in the treatment of diseases and conditions in which the activity of SSAO/VAP-1 plays a role, that is, in SSAO/VAP-1 mediated diseases and conditions.
With CSc1ccc(C/C(=C/F)CN)cc1.Cl [Compound I-9-Z, (Z)-3-Fluoro-2-(4-methylthiobenzyl)allylamine hydrochloride] the “Specificity of SSAO on MAO-A” value was 8385. For Cc1cccc(C/C=C(/F)CN)c1.Cl [II-6-E, (E)-2-Fluoro-4-(3-methylphenyl)-2-butenylamine hydrochloride], the “Specificity of SSAO on MAO-A” value was 7692. With CCOc1ccc(C/C(=C\F)CN)cc1.Cl [Compound I-2-E, (E)-3-Fluoro-2-(4-ethoxybenzyl)-allylamine hydrochloride] the “Specificity of SSAO on MAO-A” value was 9400. In the case of Cl.NC/C(F)=C\Cc1cccc(OC(F)(F)F)c1 [II-10-E, (E)-2-Fluoro-4-(3-trifluoromethoxyphenyl)-2-butenylamine hydrochloride], the “Specificity of SSAO on MAO-A” value is reported as 48330. In the case of CC(C)c1ccc(C/C(=C/F)CN)cc1.Cl [Compound I-14-Z, (Z)-3-Fluoro-2-(4-isopropylbenzyl)allylamine hydrochloride], the “Specificity of SSAO on MAO-A” value is reported as 11250. For Cl.NC/C(=C\F)Cc1cccc(F)c1 [Compound I-19-Z, (Z)-3-Fluoro-2-(3-fluorobenzyl)allylamine hydrochloride], the “Specificity of SSAO on MAO-A” value was 1360. In the case of Cl.NC/C(=C\F)Cc1ccc(Cl)cc1 [Compound I-3-Z, (Z)-2-(4-Chlorobenzyl)-3-fluoro-allylamine hydrochloride], the “Specificity of SSAO on MAO-A” value is reported as 3250. In the case of Cl.NC/C(F)=C\Cc1ccc(F)cc1 [II-5-E, (E)-2-Fluoro-4-(4-fluorophenyl)-2-butenylamine hydrochloride], the “Specificity of SSAO on MAO-A” value is reported as over 3333. With Cl.NC/C(F)=C\Cc1cccc(SC(F)(F)F)c1 [II-15-E, (E)-2-Fluoro-4-(3-trifluoromethylthiophenyl)-2-butenylamine hydrochloride] the “Specificity of SSAO on MAO-A” value was over 34780. With CC(C)Oc1ccc(C/C(=C/F)CN)cc1.Cl [Compound I-8-Z, (Z)-3-Fluoro-2-(4-isopropoxybenzyl)allylamine hydrochloride] the “Specificity of SSAO on MAO-A” value was 7000.

Same assay, conditions: recombinant human MAO-A
Compound CSc1ccc(C/C(=C/F)CN)cc1.Cl [Compound I-9-Z, (Z)-3-Fluoro-2-(4-methylthiobenzyl)allylamine hydrochloride] has an IC50 of 109 µM. With CCOc1ccc(C/C(=C\F)CN)cc1.Cl [Compound I-2-E, (E)-3-Fluoro-2-(4-ethoxybenzyl)-allylamine hydrochloride] the IC50 was 85 µM. Cl.NC/C(F)=C\Cc1cccc(OC(F)(F)F)c1 [II-10-E, (E)-2-Fluoro-4-(3-trifluoromethoxyphenyl)-2-butenylamine hydrochloride] gave an IC50 of 870 µM. With CC(C)c1ccc(C/C(=C/F)CN)cc1.Cl [Compound I-14-Z, (Z)-3-Fluoro-2-(4-isopropylbenzyl)allylamine hydrochloride] the IC50 was 90 µM. In the case of Cl.NC/C(=C\F)Cc1cccc(F)c1 [Compound I-19-Z, (Z)-3-Fluoro-2-(3-fluorobenzyl)allylamine hydrochloride], the IC50 is reported as 34 µM. Compound Cl.NC/C(=C\F)Cc1ccc(Cl)cc1 [Compound I-3-Z, (Z)-2-(4-Chlorobenzyl)-3-fluoro-allylamine hydrochloride] has an IC50 of 91 µM. Cl.NC/C(F)=C\Cc1ccc(F)cc1 [II-5-E, (E)-2-Fluoro-4-(4-fluorophenyl)-2-butenylamine hydrochloride] showed an IC50 of over 1000 µM. For Cl.NC/C(F)=C\Cc1cccc(SC(F)(F)F)c1 [II-15-E, (E)-2-Fluoro-4-(3-trifluoromethylthiophenyl)-2-butenylamine hydrochloride], the IC50 was over 800 µM. With CC(C)Oc1ccc(C/C(=C/F)CN)cc1.Cl [Compound I-8-Z, (Z)-3-Fluoro-2-(4-isopropoxybenzyl)allylamine hydrochloride] the IC50 was 35 µM.

Target: T2, Human SSAO (Homo sapiens, UniProt Q16853)
T2 construct: rat lung or human umbilical cord homogenates were prepared by chopping the freshly removed tissue; from tissue; host or cells: human umbilical cord homogenate (25,000 g supernatant)
T2 sequence (Q16853 1-763): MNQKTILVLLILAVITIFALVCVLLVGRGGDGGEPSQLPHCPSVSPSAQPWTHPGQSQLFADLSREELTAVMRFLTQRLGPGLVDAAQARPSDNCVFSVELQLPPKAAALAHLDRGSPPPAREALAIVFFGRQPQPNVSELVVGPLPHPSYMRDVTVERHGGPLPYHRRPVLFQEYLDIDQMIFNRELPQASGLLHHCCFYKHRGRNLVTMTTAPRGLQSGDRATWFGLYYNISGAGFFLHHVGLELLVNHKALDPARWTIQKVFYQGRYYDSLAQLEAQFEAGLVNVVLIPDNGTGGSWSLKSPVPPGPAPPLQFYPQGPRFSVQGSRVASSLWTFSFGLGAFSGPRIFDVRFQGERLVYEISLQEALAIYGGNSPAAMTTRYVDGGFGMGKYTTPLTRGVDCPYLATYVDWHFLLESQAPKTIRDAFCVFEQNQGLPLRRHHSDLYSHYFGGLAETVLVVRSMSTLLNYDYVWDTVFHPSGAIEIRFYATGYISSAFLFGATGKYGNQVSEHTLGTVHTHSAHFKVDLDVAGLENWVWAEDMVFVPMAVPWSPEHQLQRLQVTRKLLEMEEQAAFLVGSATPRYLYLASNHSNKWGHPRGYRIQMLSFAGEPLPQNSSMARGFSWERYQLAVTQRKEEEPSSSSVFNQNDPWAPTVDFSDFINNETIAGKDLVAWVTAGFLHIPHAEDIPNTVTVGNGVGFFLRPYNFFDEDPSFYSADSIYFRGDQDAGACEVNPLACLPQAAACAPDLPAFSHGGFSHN
Experiment: In vitro inhibition of SSAO activity, human umbilical cord homogenate, 14C-benzylamine
Format: biochemical
Settings: human umbilical cord homogenate; read-out: Human SSAO IC50
Protocol: SSAO activity was measured as described (Lizcano J M. Et al. (1998) Biochem J. 331:69). Briefly, rat lung or human umbilical cord homogenates were prepared by chopping the freshly removed tissue into small pieces and washing them thoroughly in PBS. The tissue was then homogenized 1:10 (w/v) for lung or 1:5 (w/v) for umbilical cord, in 10 mM potassium phosphate buffer (pH 7.8). Homogenates were then centrifuged at 1000 g at 4° C. for 10 min (lung) or 25,000 g for 30 min (umbilical cord); the supernatants were kept frozen until ready to use. Lung or umbilical cord homogenate was preincubated with clorgyline and pargyline at 1 μM to inhibit MAO-A and -B activity, respectively, and SSAO inhibitors were generally present at 1 nM-10 μM. The reaction was initiated by addition of 20 μM ^14C— benzylamine as substrate. The reaction was carried out at 37° C. in a final volume of 400 μL of 100 mM potassium phosphate buffer (pH 7.2) and stopped with 100 μl of 2M citric acid. Radioactively labeled products were extracted into toluene/ethyl acetate (1:1, v/v) containing 0.6% (w/v) 2,5-diphenyloxazole (PPO) before liquid scintillation counting.
With CSc1ccc(C/C(=C/F)CN)cc1.Cl [Compound I-9-Z, (Z)-3-Fluoro-2-(4-methylthiobenzyl)allylamine hydrochloride] the IC50 was 0.012 µM. Compound Cc1cccc(C/C=C(/F)CN)c1.Cl [II-6-E, (E)-2-Fluoro-4-(3-methylphenyl)-2-butenylamine hydrochloride] has an IC50 of 0.13 µM. In the case of CCOc1ccc(C/C(=C\F)CN)cc1.Cl [Compound I-2-E, (E)-3-Fluoro-2-(4-ethoxybenzyl)-allylamine hydrochloride], the IC50 is reported as 0.009 µM. In the case of Cl.NC/C(F)=C\Cc1cccc(OC(F)(F)F)c1 [II-10-E, (E)-2-Fluoro-4-(3-trifluoromethoxyphenyl)-2-butenylamine hydrochloride], the IC50 is reported as 0.018 µM. Compound CC(C)c1ccc(C/C(=C/F)CN)cc1.Cl [Compound I-14-Z, (Z)-3-Fluoro-2-(4-isopropylbenzyl)allylamine hydrochloride] has an IC50 of 0.008 µM. Cl.NC/C(=C\F)Cc1cccc(F)c1 [Compound I-19-Z, (Z)-3-Fluoro-2-(3-fluorobenzyl)allylamine hydrochloride] showed an IC50 of 0.025 µM. With Cl.NC/C(=C\F)Cc1ccc(Cl)cc1 [Compound I-3-Z, (Z)-2-(4-Chlorobenzyl)-3-fluoro-allylamine hydrochloride] the IC50 was 0.028 µM. With Cl.NC/C(F)=C\Cc1ccc(F)cc1 [II-5-E, (E)-2-Fluoro-4-(4-fluorophenyl)-2-butenylamine hydrochloride] the IC50 was 0.3 µM. Cl.NC/C(F)=C\Cc1cccc(SC(F)(F)F)c1 [II-15-E, (E)-2-Fluoro-4-(3-trifluoromethylthiophenyl)-2-butenylamine hydrochloride] gave an IC50 of 0.023 µM. CC(C)Oc1ccc(C/C(=C/F)CN)cc1.Cl [Compound I-8-Z, (Z)-3-Fluoro-2-(4-isopropoxybenzyl)allylamine hydrochloride] gave an IC50 of 0.005 µM.
